From patent publication US20120077683A1, “KIT AND METHOD FOR PREDICTING CYTARABINE SENSITIVY OF PATIENT HAVING ACUTE MYELOID LEUKEMIA” (SAMSUNG ELECTRONICS CO., LTD., priority 2010, published 2012)

How the values were obtained:
[1] = tested on: patients having acute myeloid leukemia; conditions: stated as known; cited from earlier work
[2] = tested on: patients having acute myeloid leukemia; assay: Cytarabine therapy of patients having acute myeloid leukemia, complete remission determined from number of leukocytes; assay type: in vivo, human; conditions: of 139 patients with acute myeloid leukemia, cytarabine administered according to NCCN guidelines
Experimental: Cytarabine sensitivity of 139 patients who had acute myeloid leukemia and were treated in Samsung Medical Center was identified. That is, cytarabine was administered to the patients according to NCCN guidelines, and the number of leukocytes was subsequently measured in each patient to determine complete remission to determine whether the cytarabine therapy was effective for the patient. The patients were then classified into one group of 121 patients having cytarabine sensitivity (responders) and the other group of 18 patients not having cytarabine sensitivity (nonresponders). In addition, blood of the patients was obtained to extract DNA by using QIAamp DNA Mini and blood Mini kits in order to determine SNPs associated with cytarabine sensitivity of the patients.

## Nc1ccn([C@@H]2O[C@H](CO)[C@@H](O)[C@@H]2O)c(=O)n1 [cytarabine, cytosine arabinoside]
[1]
  patients having acute myeloid leukemia on whom administration of cytarabine is not effective: about 20%
[2]
  patients having cytarabine sensitivity (responders): 121 patients
  patients not having cytarabine sensitivity (nonresponders): 18 patients
